The test has as its system BDF1 mice, colon carcinoma 38 sc, T/C %. The experiment in a line: NCI In Vivo Anticancer Drug Screen. Data for tumor model Colon Carcinoma 38 (subcutaneous) in B6D2F1 (BDF1) mice. The procedure, abridged:
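Compound antitumor activity was assessed in mice carrying transplantable tumors. Survival or tumor size was recorded, and each value is the treated-group measurement divided by that of the vehicle-treated control group.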

Setting [1] is: endpoint: median tumor weight (est.), dose: 12.5 mg/kg/injection, schedule: Q07DX002 (ip), vehicle: Klucel (hydroxypropylcellulose) (HPC), higher = larger tumour.
Where [2] appears, read: endpoint: median tumor weight (est.), dose: 25.0 mg/kg/injection, schedule: Q07DX002 (ip), vehicle: water, higher = larger tumour.
The mark [3] stands for this setting: endpoint: median tumor weight (est.), dose: 50.0 mg/kg/injection, schedule: Q07DX002 (ip), vehicle: Klucel (hydroxypropylcellulose) (HPC), higher = larger tumour.
The mark [4] stands for this setting: endpoint: median tumor weight (est.), dose: 50.0 mg/kg/injection, schedule: Q07DX002 (ip), vehicle: water, higher = larger tumour.
[5] abbreviates: endpoint: median tumor weight (est.), dose: 100.0 mg/kg/injection, schedule: Q07DX002 (ip), vehicle: Klucel (hydroxypropylcellulose) (HPC), higher = larger tumour.
[6] abbreviates: endpoint: median tumor weight (est.), dose: 100.0 mg/kg/injection, schedule: Q07DX002 (ip), vehicle: water, higher = larger tumour.
Setting [7] is: endpoint: median tumor weight (est.), dose: 200.0 mg/kg/injection, schedule: Q07DX002 (ip), vehicle: Klucel (hydroxypropylcellulose) (HPC), higher = larger tumour.
Where [8] appears, read: endpoint: median tumor weight (est.), dose: 200.0 mg/kg/injection, schedule: Q07DX002 (ip), vehicle: water, higher = larger tumour.
Setting [9] is: endpoint: median tumor weight (est.), dose: 6.25 mg/kg/injection, schedule: Q07DX002 (ip), vehicle: saline, higher = larger tumour.
[10] abbreviates: endpoint: median tumor weight (est.), dose: 50.0 mg/kg/injection, schedule: Q07DX002 (ip), vehicle: saline with Tween-80, higher = larger tumour.

Several values for one entry are separate records, joined by “and”; a condition that tells them apart may be missing. Equal entries are not always repeated. Inconclusive results are not listed.

`CCOC(=O)C1C2OC(=O)C(C(=O)C2CN(CCCl)CCCl)C1C1CC=C(CC2=CCC(C3C4C(=O)OC(C(CN(CCCl)CCCl)C4=O)C3C(=O)OCC)CC2)CC1` (stereo not given): the T/C (endpoint: median tumor weight (est.), dose: 12.5 mg/kg/injection, schedule: Q07DX003 (ip), vehicle: Klucel (hydroxypropylcellulose) (HPC), higher = larger tumour) was 95 % of control; the T/C (endpoint: median tumor weight (est.), dose: 25.0 mg/kg/injection, schedule: Q07DX003 (ip), vehicle: Klucel (hydroxypropylcellulose) (HPC), higher = larger tumour) is 117 % of control; the T/C (endpoint: median tumor weight (est.), dose: 50.0 mg/kg/injection, schedule: Q07DX003 (ip), vehicle: Klucel (hydroxypropylcellulose) (HPC), higher = larger tumour) is 116 % of control; the T/C (endpoint: median tumor weight (est.), dose: 100.0 mg/kg/injection, schedule: Q07DX003 (ip), vehicle: Klucel (hydroxypropylcellulose) (HPC), higher = larger tumour) was 110 % of control; the T/C (endpoint: median tumor weight (est.), dose: 200.0 mg/kg/injection, schedule: Q07DX003 (ip), vehicle: Klucel (hydroxypropylcellulose) (HPC), higher = larger tumour) was 67 % of control.

Consider `O=C(O)CSc1nc(-c2ccccc2)c(-c2ccccc2)n1-c1ccccn1`, for which the T/C is, setting by setting: under setting [1], 92 % of control; (endpoint: median tumor weight (est.), dose: 25.0 mg/kg/injection, schedule: Q07DX002 (ip), vehicle: Klucel (hydroxypropylcellulose) (HPC), higher = larger tumour) 83 % of control; under setting [2], 114 % of control; under setting [3], 72 % of control; under setting [4], 112 % of control; under setting [5], 106 % of control. Also, the T/C under setting [6] is 95 % of control, the T/C under setting [7] is 73 % of control and the T/C under setting [8] is 89 % of control.

In the case of `CN(C(=S)S(=O)(=O)C12CC3CC(CC(C3)C1)C2)c1ccccc1`, the T/C (endpoint: median tumor weight (est.), dose: 3.12 mg/kg/injection, schedule: Q07DX002 (ip), vehicle: Klucel (hydroxypropylcellulose) (HPC), higher = larger tumour) is 104 % of control; the T/C (endpoint: median tumor weight (est.), dose: 6.25 mg/kg/injection, schedule: Q07DX002 (ip), vehicle: Klucel (hydroxypropylcellulose) (HPC), higher = larger tumour) is 92 % of control and 102 % of control; the T/C under setting [1] was 116 % of control and 93 % of control; the T/C under setting [3] is 101 % of control and 106 % of control; the T/C under setting [5] was 115 % of control; the T/C under setting [7] was 105 % of control.

Regarding `CSc1ncnc2c1ncn2C1OC(CO)C(O)C1O` (stereo not given), the T/C was 91 % of control (endpoint: median tumor weight (est.), dose: 6.25 mg/kg/injection, schedule: Q07DX002 (ip), vehicle: saline + alcohol, higher = larger tumour); 83 % of control (endpoint: median tumor weight (est.), dose: 12.5 mg/kg/injection, schedule: Q07DX002 (ip), vehicle: saline + alcohol, higher = larger tumour); 150 % of control (endpoint: median tumor weight (est.), dose: 25.0 mg/kg/injection, schedule: Q07DX002 (ip), vehicle: saline + alcohol, higher = larger tumour); 25 % of control (endpoint: median tumor weight (est.), dose: 100.0 mg/kg/injection, schedule: Q07DX002 (ip), vehicle: saline + alcohol, higher = larger tumour).

On to `CCN(CC)CCOC(=O)Cc1cccc2c(=O)cc(-c3ccccc3)oc12`, for which the T/C was 110 % of control (endpoint: median survival time, dose: 133.0 mg/kg/injection, schedule: Q07DX002 (ip), vehicle: saline, higher = longer survival); 313 % of control (endpoint: median survival time, dose: 200.0 mg/kg/injection, schedule: Q07DX002 (ip), vehicle: saline, higher = longer survival); 92 % of control (endpoint: median tumor weight (est.), dose: 3.12 mg/kg/injection, schedule: Q07DX002 (iv), vehicle: saline, higher = larger tumour); 74 % of control under setting [9]; 88 % of control (endpoint: median tumor weight (est.), dose: 6.25 mg/kg/injection, schedule: Q07DX002 (iv), vehicle: saline, higher = larger tumour); 109 % of control (endpoint: median tumor weight (est.), dose: 12.5 mg/kg/injection, schedule: Q07DX002 (iv), vehicle: saline, higher = larger tumour). Besides, the T/C runs as follows: (endpoint: median tumor weight (est.), dose: 25.0 mg/kg/injection, schedule: Q07DX002 (iv), vehicle: saline, higher = larger tumour) 46 % of control; (endpoint: median tumor weight (est.), dose: 28.0 mg/kg/injection, schedule: Q07DX002 (iv), vehicle: saline, higher = larger tumour) 122 % of control; (endpoint: median tumor weight (est.), dose: 37.5 mg/kg/injection, schedule: Q07DX002 (iv), vehicle: saline, higher = larger tumour) 110 % of control; under setting [3], 61 % of control; under setting [10], 45 % of control; (endpoint: median tumor weight (est.), dose: 50.0 mg/kg/injection, schedule: Q07DX009 (ip), vehicle: saline, higher = larger tumour) 84 % of control. For the same molecule, the T/C (endpoint: median tumor weight (est.), dose: 100.0 mg/kg/injection, schedule: Q07DX002 (ip), vehicle: saline with Tween-80, higher = larger tumour) was 61 % of control; the T/C (endpoint: median tumor weight (est.), dose: 100.0 mg/kg/injection, schedule: Q07DX009 (ip), vehicle: saline, higher = larger tumour) is 40 % of control; the T/C (endpoint: median tumor weight (est.), dose: 112.0 mg/kg/injection, schedule: Q07DX002 (ip), vehicle: saline, higher = larger tumour) is 105 % of control; the T/C (endpoint: median tumor weight (est.), dose: 150.0 mg/kg/injection, schedule: Q07DX002 (ip), vehicle: saline, higher = larger tumour) was 89 % of control.

For `C/C=C(\C)c1cc(=O)c2c(C)cc3c(c2o1)C(=O)c1c(O)c(C2CC(C)(N(C)C)C(O)C(C)O2)cc(C2CC(N(C)C)C(O)C(C)O2)c1C3=O` (stereo not given), the T/C is 117 % of control (endpoint: median tumor weight (est.), dose: 0.62 mg/kg/injection, schedule: Q07DX002 (ip), vehicle: saline, higher = larger tumour); 118 % of control (endpoint: median tumor weight (est.), dose: 1.25 mg/kg/injection, schedule: Q07DX002 (ip), vehicle: saline, higher = larger tumour); 109 % of control and 103 % of control (endpoint: median tumor weight (est.), dose: 62.5 micrograms/kg/injection, schedule: Q07DX002 (ip), vehicle: saline, higher = larger tumour); 81 % of control and 84 % of control (endpoint: median tumor weight (est.), dose: 250.0 micrograms/kg/injection, schedule: Q07DX002 (ip), vehicle: saline, higher = larger tumour); 80 % of control and 85 % of control (endpoint: median tumor weight (est.), dose: 500.0 micrograms/kg/injection, schedule: Q07DX002 (ip), vehicle: saline, higher = larger tumour); 74 % of control and 95 % of control (endpoint: median tumor weight (est.), dose: 1000.0 micrograms/kg/injection, schedule: Q07DX002 (ip), vehicle: saline, higher = larger tumour). For the same molecule, where the note is “endpoint: median tumor weight (est.), dose: 2000.0 micrograms/kg/injection, schedule: Q07DX002 (ip), vehicle: saline, higher = larger tumour”, the T/C is 100 % of control.

Regarding `CN1CCN(CCCN2c3ccccc3Sc3ccc(C(F)(F)F)cc32)CC1`, the T/C (endpoint: median tumor weight (est.), dose: 6.25 mg/kg/injection, schedule: Q07DX002 (ip), vehicle: saline with Tween-80, higher = larger tumour) is 104 % of control; the T/C under setting [9] is 116 % of control; the T/C (endpoint: median tumor weight (est.), dose: 12.5 mg/kg/injection, schedule: Q07DX002 (ip), vehicle: saline, higher = larger tumour) was 112 % of control; the T/C (endpoint: median tumor weight (est.), dose: 25.0 mg/kg/injection, schedule: Q07DX002 (ip), vehicle: saline with Tween-80, higher = larger tumour) was 91 % of control; the T/C (endpoint: median tumor weight (est.), dose: 25.0 mg/kg/injection, schedule: Q07DX002 (ip), vehicle: saline, higher = larger tumour) was 97 % of control; the T/C under setting [10] was 96 % of control. Also, the T/C is 90 % of control (endpoint: median tumor weight (est.), dose: 50.0 mg/kg/injection, schedule: Q07DX002 (ip), vehicle: saline, higher = larger tumour); 96 % of control (endpoint: median tumor weight (est.), dose: 100.0 mg/kg/injection, schedule: Q07DX002 (ip), vehicle: saline, higher = larger tumour); 74 % of control (endpoint: median tumor weight (est.), dose: 200.0 mg/kg/injection, schedule: Q07DX002 (ip), vehicle: saline, higher = larger tumour).

On to `Cc1cc2c(=O)c3ccccc3oc2c(C(=O)O)c1C`, for which the T/C runs as follows: (endpoint: median tumor weight (est.), dose: 50.0 mg/kg/injection, schedule: Q07DX002 (ip), vehicle: sodium bicarbonate, higher = larger tumour) 69 % of control; (endpoint: median tumor weight (est.), dose: 100.0 mg/kg/injection, schedule: Q07DX002 (ip), vehicle: sodium bicarbonate, higher = larger tumour) 42 % of control; (endpoint: median tumor weight (est.), dose: 200.0 mg/kg/injection, schedule: Q07DX002 (ip), vehicle: sodium bicarbonate, higher = larger tumour) 37 % of control; (endpoint: median tumor weight (est.), dose: 400.0 mg/kg/injection, schedule: Q07DX002 (ip), vehicle: sodium bicarbonate, higher = larger tumour) 44 % of control.

As for `O=C1C=C[C@H](O)[C@@]2(CO)O[C@@H]12`, the T/C is, setting by setting: (endpoint: median tumor weight (est.), dose: 0.62 mg/kg/injection, schedule: Q07DX002 (ip), vehicle: saline with Tween-80, higher = larger tumour) 104 % of control; (endpoint: median tumor weight (est.), dose: 1.25 mg/kg/injection, schedule: Q07DX002 (ip), vehicle: saline with Tween-80, higher = larger tumour) 116 % of control; (endpoint: median tumor weight (est.), dose: 2.5 mg/kg/injection, schedule: Q07DX002 (ip), vehicle: saline with Tween-80, higher = larger tumour) 69 % of control; (endpoint: median tumor weight (est.), dose: 5.0 mg/kg/injection, schedule: Q07DX002 (ip), vehicle: saline with Tween-80, higher = larger tumour) 79 % of control; (endpoint: median tumor weight (est.), dose: 10.0 mg/kg/injection, schedule: Q07DX002 (ip), vehicle: saline with Tween-80, higher = larger tumour) 97 % of control.

Consider `O=C1CN(CCN2CC(=O)N(CN3CCOCC3)C(=O)C2)CC(=O)N1CN1CCOCC1`, for which the T/C (endpoint: median tumor weight (est.), dose: 12.5 mg/kg/injection, schedule: Q07DX002 (ip), vehicle: water, higher = larger tumour) was 168 % of control; the T/C under setting [2] was 158 % of control; the T/C under setting [4] was 36 % of control; the T/C under setting [6] is 113 % of control and 90 % of control; the T/C under setting [8] was 57 % of control.

The values are drawn from PubChem BioAssay AID212 (DTP/NCI, 2004).
